The record followed here is patent US8013158B2, “Crystalline forms of topotecan hydrochloride and processes for making the same” (Scinopharm Taiwan Ltd., priority 2007, dated 2011).

“Also recorded” adds a separate entry of the source.

The nature of data set [1]: Stability of crystalline forms held at room temperature, purity by HPLC. The following applies: for Purity / Stability at room temperature: HPLC; for Stability at room temperature: over twenty days at room temperature. The class given is physicochemical. An excerpt: The stabilities of some of the crystalline forms have been tested under various conditions. HPLC was used to determine the degree of degradation of topotecan hydrochloride over time.
The samples with different forms were held at room temperature for a specific period. We tested the purities of these samples by HPLC and observed the changes of their purities.
The changes to the purities of Forms D to I are summarized as follows: […]

Data set [2] can be described thus: Experiment 2: long-time stirring in ethyl acetate at room temperature, resulting crystalline form. Type of data set: physicochemical. The protocol: Topotecan hydrochloride (4.0 g Form A or Form D) is stirred in ethyl acetate (40 mL) for a long time (40, 80, or 200 hours) at room temperature. The solids are filtered and washed with cool ethyl acetate. Dry under vacuum at room temperature.

Where [3] appears, read: room temperature, duration 0 hour, hydrochloride.
The mark [4] stands for this setting: room temperature, duration 3 days, hydrochloride.
Setting [5] is: room temperature, duration 7 days, hydrochloride.
[6] abbreviates: room temperature, duration 20 days, hydrochloride.
[7] abbreviates: room temperature, duration 36 days, hydrochloride.
[8] abbreviates: room temperature, duration 32 days, hydrochloride.

For `CC[C@@]1(O)C(=O)OCc2c1cc1n(c2=O)Cc2cc3c(CN(C)C)c(O)ccc3nc2-1.Cl` [Form E, topotecan hydrochloride], the Purity in data set [1] (setting [3]) came out at 98.99%; in data set [1] (setting [4]), 99.27%; in data set [1] (setting [5]), 99.31%; in data set [1] (setting [6]), 99.29%; in data set [1] (setting [7]), 99.30%.
With `CC[C@@]1(O)C(=O)OCc2c1cc1n(c2=O)Cc2cc3c(CN(C)C)c(O)ccc3nc2-1.Cl` [Form G, topotecan hydrochloride], the Purity in data set [1] (setting [3]) is 99.11%; in data set [1] (setting [4]), 99.06%; in data set [1] (setting [5]), 99.00%; in data set [1] (setting [6]) it was 98.88%; in data set [1] (setting [8]), 99.06%.
As for `CC[C@@]1(O)C(=O)OCc2c1cc1n(c2=O)Cc2cc3c(CN(C)C)c(O)ccc3nc2-1.Cl` [Form F, topotecan hydrochloride], the Purity came out at 99.94% in data set [1] (setting [3]); 99.92% in data set [1] (setting [4]); 99.91% in data set [1] (room temperature, duration 16 days); 99.91% in data set [1] (setting [8]).
In the case of `CC[C@@]1(O)C(=O)OCc2c1cc1n(c2=O)Cc2cc3c(CN(C)C)c(O)ccc3nc2-1.Cl` [Form H, topotecan hydrochloride], the “Stability at room temperature” value in data set [1] was “substantially stable”. Moreover, the Purity in data set [1] (setting [3]) is recorded as 99.92%; in data set [1] (setting [4]) it was 99.90%; in data set [1] (setting [5]) it was 99.92%; in data set [1] (setting [6]) it was 99.89%.
Consider `CC[C@@]1(O)C(=O)OCc2c1cc1n(c2=O)Cc2cc3c(CN(C)C)c(O)ccc3nc2-1.Cl` [Form D, topotecan hydrochloride], for which the “Stability at room temperature compared with other Forms” value in data set [1] (room temperature) is on record as “better than other Forms”. Further, the Purity in data set [1] (setting [3]) amounted to 99.32%; in data set [1] (setting [4]), 99.21%; in data set [1] (setting [5]), 99.17%; in data set [1] (setting [6]), 99.08%; in data set [1] (setting [7]) it was 99.43%. In addition, in data set [2] (long time stirring in ethyl acetate), the “Stability on long time stirring compared with Form A” value is “more stable than Form A”. The “Crystalline form after stirring” value is recorded as “Form D → D” in data set [2] (stirred in ethyl acetate 40 h at room temperature, hydrochloride); “Form D → D” in data set [2] (stirred in ethyl acetate 80 h at room temperature, hydrochloride); “stable; also recorded: Form D → D” in data set [2] (stirred in ethyl acetate 200 h at room temperature, hydrochloride).
As for `CC[C@@]1(O)C(=O)OCc2c1cc1n(c2=O)Cc2cc3c(CN(C)C)c(O)ccc3nc2-1.Cl` [Form A, topotecan monohydrochloride pentahydrate, reference compound], the “Crystalline form after stirring” value is on record as “From A → A” in data set [2] (stirred in ethyl acetate 40 h at room temperature, listed as From A); “transform to Form E; also recorded: Form A → E” in data set [2] (stirred in ethyl acetate 80 h at room temperature); “Form A → E” in data set [2] (stirred in ethyl acetate 200 h at room temperature).
Consider `CC[C@@]1(O)C(=O)OCc2c1cc1n(c2=O)Cc2cc3c(CN(C)C)c(O)ccc3nc2-1.Cl` [Form I, topotecan hydrochloride], for which the “Stability at room temperature” value in data set [1] is listed as “substantially stable”. Besides, the Purity was found to be 99.70% in data set [1] (setting [3]), 99.65% in data set [1] (setting [4]), 99.56% in data set [1] (setting [5]) and 99.56% in data set [1] (setting [6]).
